Assay results taken from patent US4438207A, “Radioimmunoassay for cannabinoids” (priority 1981, dated 1984).

How the values were obtained:
antiserum = experiment: Binding of iodinated antigen to THC antiserum; parameters: species or system rabbit
Protocol: A total of 50 μl of a solution of […] of (6aR-trans)-N-[2-(4-hydroxyphenyl)ethyl]-4-(6a,7,8,10a-Tetrahydro-6,6,9-trimethyl-3-pentyl-6H-dibenzo[b,d]pyran-1-oxy)butanamide in 1 ml of 100% alcohol was added to a vial containing 5 mCi of Na^125 I having a radioactive concentration of >100 mCi/ml. To this mixture was then added a total of 40 μl of chloramine T solution (5 mg/ml in 75% EtOH; 25% Borate buffer 0.1 M, pH 8.4). The reaction mixture was mixed for 180 seconds. After mixing, a total of 40 μl of a 1% solution of sodium meta bisulfite (75% EtOH, 25% Tris buffer 0.1 M, pH 7.0) was added to the reaction vial, and the vial contents were mixed for 30 seconds to stop the reaction.
The mixture was removed from the vial and placed on the surface of a Bio-Gel P-2 column (1.5×40 cm, 100-200 mesh) until completely absorbed on the column bed. Approximately 200 ml of 60% Tris -40% EtOH were added, and 100×1-2 ml fractions were collected. The eluate contained the above-captioned, labeled antigen.
After selection of the appropriate fractions (≥50% binding), the fractions were pooled and diluted 1:50 in 0.01 M phosphate buffered saline (PBS) containing 25% ethanol with 0.1% sodium azide and 0.002-0.007% butylated hydroxy toluene (BHT) as preservatives.
[…]. Multiple iodinations were performed on Δ^9 -tetrahydrocannabinol,and the radioisotopically-labeled reagent was used as the ^125 I-labeled antigen. The elution patterns varied considerably. In general, there were numerous small peaks in the elution patterns of most of the iodination products with the percent binding being lower than 50%. On occasion, there were two major peaks with insufficient binding (<50%) in either peak.
. Subsequent injections were made at four-week intervals with immunogen in Freund's incomplete adjuvant. Bleedings, obtained by venipuncture from immunized rabbits, were allowed to stand at 2°-8° C. temperature until the clot had formed. The serum was decanted and stored at from -20° to 5° C.

[1] = experiments with humans; cited from earlier work
[2] = test system: Tetrahydrocannabinol Antibody; experiment: ^125 I THC radioimmunoassay response curve, dextran-coated charcoal separation; format: binding, rabbit
[3] = test system: Tetrahydrocannabinol Antibody; experiment: ^125 I THC radioimmunoassay response curve, anion exchange resin separation; format: binding, rabbit; conditions: resin reagent
[4] = Urine THC levels as a function of time after smoking known dosages; conditions: THC 2.5 mg smoked

Molecule: (6aR-trans)-N-[2-hydroxyphenyl)ethyl]-4-(6a,7,10,10a-Tetrahydro-6,6,9-trimethyl-3-pentyl-6H-dibenzo[b,d]pyran-1-oxy)butanamide [Δ^9 -Tetrahydrocannabinol Derivative]
- binding properties retained (antiserum; antigen reagent, at least six weeks): > 50%
- binding of iodinated product, major peak (antiserum; upon iodination, major peak, fractions #10 to #15): > 50%
- binding of iodinated product, minor peak (antiserum; upon iodination, minor peak, fractions #30 to #35): no binding

Molecule: CCCCCc1cc(O)c2c(c1)OC(C)(C)[C@@H]1CCC(C)=C[C@@H]21 [THC, Δ-9-tetrahydrocannabinol]
- excretion route of metabolites [1]: mainly via feces
- extent of metabolism [1]: almost complete metabolism
- DPM ([2]; 12.5 ng/ml THC): 13946 DPM
- DPM ([2]; 25.0 ng/ml THC): 11964 DPM
- DPM ([2]; 50.0 ng/ml THC): 11389 DPM
- DPM ([2]; 100.0 ng/ml THC): 11342 DPM
- DPM ([2]; 200.0 ng/ml THC): 10474 DPM
- DPM ([3]; 12.5 ng/ml THC): 31096 DPM
- DPM ([3]; 25 ng/ml THC): 29212 DPM
- DPM ([3]; 50 ng/ml THC): 27945 DPM
- DPM ([3]; 100 ng/ml THC): 26333 DPM
- DPM ([3]; 200 ng/ml THC): 25651 DPM
- Tetrahydrocannabinol Concentration in urine ([4]; subject 1 (smoked marijuana prior to study), sodium azide added, 0 h): 10.0 ng THC E/ml
- Tetrahydrocannabinol Concentration in urine ([4]; subject 1 (smoked marijuana prior to study), sodium azide added, 0-4 h): 29.0 ng THC E/ml
- Tetrahydrocannabinol Concentration in urine ([4]; subject 1 (smoked marijuana prior to study), sodium azide added, 4-8 h): 70.0 ng THC E/ml
- Tetrahydrocannabinol Concentration in urine ([4]; subject 1 (smoked marijuana prior to study), sodium azide added, 12-24 h): 72.5 ng THC E/ml
- Tetrahydrocannabinol Concentration in urine ([4]; subject 1 (smoked marijuana prior to study), sodium azide added, 24-48 h): 41.5 ng THC E/ml
- Tetrahydrocannabinol Concentration in urine ([4]; subject 1 (smoked marijuana prior to study), sodium azide added, 48-72 h): 40.0 ng THC E/ml
- Tetrahydrocannabinol Concentration in urine ([4]; subject 1 (smoked marijuana prior to study), 0 h): 28.0 ng THC E/ml
- Tetrahydrocannabinol Concentration in urine ([4]; subject 1 (smoked marijuana prior to study), 0-4 h): 45.0 ng THC E/ml
- Tetrahydrocannabinol Concentration in urine ([4]; subject 1 (smoked marijuana prior to study), 4-8 h): 37.5 ng THC E/ml
- Tetrahydrocannabinol Concentration in urine ([4]; subject 1 (smoked marijuana prior to study), 12-24 h): 45.0 ng THC E/ml
- Tetrahydrocannabinol Concentration in urine ([4]; subject 1 (smoked marijuana prior to study), 24-48 h): 20.0 ng THC E/ml
- Tetrahydrocannabinol Concentration in urine ([4]; subject 1 (smoked marijuana prior to study), 48-72 h): 27.5 ng THC E/ml
- Tetrahydrocannabinol Concentration in urine ([4]; subject 2, sodium azide added, 0 h): 5.0 ng THC E/ml
- Tetrahydrocannabinol Concentration in urine ([4]; subject 2, sodium azide added, 0-4 h): 11.0 ng THC E/ml
- Tetrahydrocannabinol Concentration in urine ([4]; subject 2, sodium azide added, 4-8 h): 13.5 ng THC E/ml
- Tetrahydrocannabinol Concentration in urine ([4]; subject 2, sodium azide added, 8-12 h): 7.5 ng THC E/ml
- Tetrahydrocannabinol Concentration in urine ([4]; subject 2, sodium azide added, 12-24 h): 17.5 ng THC E/ml
- Tetrahydrocannabinol Concentration in urine ([4]; subject 2, sodium azide added, 24-48 h): 7.5 ng THC E/ml
- Tetrahydrocannabinol Concentration in urine ([4]; subject 2, sodium azide added, 48-72 h): 5.0 ng THC E/ml
- Tetrahydrocannabinol Concentration in urine ([4]; subject 2, 0 h): 5.0 ng THC E/ml
- Tetrahydrocannabinol Concentration in urine ([4]; subject 2, 0-4 h): 4.0 ng THC E/ml
- Tetrahydrocannabinol Concentration in urine ([4]; subject 2, 4-8 h): 26.0 ng THC E/ml
- Tetrahydrocannabinol Concentration in urine ([4]; subject 2, 8-12 h): 10.0 ng THC E/ml
- Tetrahydrocannabinol Concentration in urine ([4]; subject 2, 12-24 h): 7.5 ng THC E/ml
- Tetrahydrocannabinol Concentration in urine ([4]; subject 2, 24-48 h): 22.5 ng THC E/ml
- Tetrahydrocannabinol Concentration in urine ([4]; subject 2, 48-72 h): 12.5 ng THC E/ml
